Melting point data for 90 molecules are collected here from a melting point compilation (Tetko et al.; mined from patent text by program, amines drawn as free bases though some values may be those of a salt).

Some results are limits rather than exact numbers.

For `COc1ccc(C(=O)c2cc(-c3ccc(S(C)(=O)=O)cc3)c(N3CCOCC3)s2)cc1`, the melting point (in general, the temperature of the solid-liquid transition) worked out at 154 °C.
Consider `O=S(=O)(Nc1ccc2c(OCc3ccc(-c4ccccc4)cc3F)cccc2c1)C(F)(F)F`, for which the melting point was in the range of 123 to 125 °C.
`OCCOCCN1CCN(C2=Nc3ccccc3Sc3ccccc32)CC1` gave a melting point of 172 to 173 °C.
Then `CC(c1ccc(-c2ccccc2)c(F)c1)c1nc(N)no1` (stereo not given), with 174 to 175 °C; and `C=C(c1ccc2nc(N)n(S(=O)(=O)C(C)C)c2c1)c1cc(F)ccc1F`, with 161 to 164 °C.
Then `Cc1ccccc1C=CCC(CCC(=O)O)(C(=O)C=Cc1ccc(Cl)cc1)c1ccccc1` (stereo not given), with 60 to 80 °C.
Under `Cc1noc(NS(=O)(=O)c2ccccc2-c2ccc(-c3ncco3)cc2CN(CC(F)(F)F)C(C)C)c1C` stands 80 to 90 °C; under `COc1ccc(C(=O)NNC(=O)c2occ(-c3ccccc3)c2-c2ccccc2)cc1F`, 110 to 112 °C; under `CCOC(=O)CNC(=O)c1nc2ccc(Cl)nn2n1`, 175 to 177 °C.
For `Cn1cc(C(=O)O)c(Nc2ccc(F)cc2F)cc1=O`, the melting point fell in the range of 253 to 255 °C.
Then `CCn1c(=O)c2[nH]c(/C=C/c3ccc(F)c(Br)c3)nc2n(CC)c1=O`, with over 300 °C.
As to `O=C(Nc1ccn[nH]1)c1cccnc1Cl`, the melting point came to 163 °C.
Take `CCCCCCCSc1nc(C)c(O)c(C)n1`: the melting point lay within 110 to 111 °C.
The molecule `Nc1cc(-c2nnc(SCc3ccc(Cl)cc3)o2)ccn1` came in with a melting point of 200 to 201 °C.
Under `COc1cc(C(C)=O)ccc1OCCN1CCN(c2n[nH]c3cc(Cl)ccc23)CC1` stands 154 to 156 °C; under `N#CSc1c(-c2ncon2)nn(-c2c(Cl)cc(C(F)(F)F)cc2Cl)c1N`, 195 to 198 °C.
Then `Cc1nc(-c2cn(-c3cc(C(F)(F)F)cc(-c4ccc(C(F)(F)F)cc4)n3)cn2)sc1S(=O)(=O)NC(C)(C)C`, with over 250 °C.
For `CN1CC(N(C(=O)c2ccc(Cl)cc2)c2ccccc2)CN1C`, the melting point is 104 to 108 °C.
Then `CCOCCn1c(COc2ccc(CO)cc2)nc2ccccc21`, with 90 to 92 °C.
Then `Cc1oc2c(NC(=O)c3c(Cl)cccc3Cl)cccc2c1COC(=O)CCCC(=O)NC(P(=O)(O)O)P(=O)(O)O`, with 190 to 195 °C; and `COCc1cnc2c(NC(=O)c3c(Cl)cccc3Cl)cc(C)cc2c1Cl`, with 156 to 158 °C; and `OC(Cc1ccc(F)cc1)(Cn1cncn1)C1(Cl)CC1` (stereo not given), with 111 °C.
Regarding `OCc1c(Cl)cc(Cl)cc1Br`, the melting point fell in the range of 111 to 112 °C.
In turn, `O=[N+]([O-])CS(=O)(=O)c1ccc(Oc2ccccc2)cc1` showed a melting point of 118 to 120 °C.
Then `O=C(Nc1ccc(C(=O)N2Cc3cccn3Cc3ccccc32)cc1)c1ccccc1Cl`, with 228 to 230 °C.
`COc1ccc2c(c1)/C(=C/CNC(C)=O)CCC2` gave a melting point of 92 to 94 °C.
`Clc1ccc(CC[C@H]2CN(Cc3ccccc3)CCN2Cc2ccccc2)cc1` registered a melting point of 87 to 90 °C.
In the case of `C#CCCOc1cc(NC(=O)CC(CC(=O)O)C(F)(F)F)c(F)cc1Cl` (stereo not given), the melting point lay in the range of 136 to 137 °C.
Then `Nc1ccc(C(=O)NCC(=O)O)cc1F`, with 198 to 200 °C.
Take `COc1cc2c3c(c1)c(CCN1CCN(c4cc(C)ccn4)CC1)c(C)n3CCC2`: the melting point is 104 °C.
Then `Cn1c2c(c3ccccc31)CCN1C(=O)CCC21C` (stereo not given), with 132 to 134 °C; and `CSC(=NS(=O)(=O)c1ccccc1Cl)SC`, with 119 to 123 °C.
Under `CC(=O)Nc1ccc(-c2cc(C(=O)c3ccc(Cl)cc3)sc2N2CCOCC2)cc1` stands 120 °C; under `Cc1ccc(S(=O)(=O)Nc2ccc(SC#N)cc2)cc1`, 122 to 124 °C; under `COCC(=S)Nc1c(Cl)c(C)cc2nc(OC)c(OC)nc12`, 174 to 176 °C.
As to `CSc1sc(C2NCCO2)c2c1C(=O)CC(C)(C)C2` (stereo not given), the melting point fell in the range of 190 to 193 °C.
For the molecule `COC(=O)C(O)c1ccccc1[N+](=O)[O-]` (stereo not given), the melting point fell in the range of 69 to 71 °C.
Under `O=c1c(-c2ccccc2)cc(Cl)c2n1CCSc1ccsc1-2` stands 179 °C; under `CN1CCN(c2cc3c(cc2F)c(=O)c(C(=O)O)cn3NCC=O)CC1`, 252 to 253 °C.
`COc1ccc(NC(=O)C(=O)N2CCC(Cc3ccc(F)cc3)CC2)cc1`: the melting point fell in the range of 105 to 107 °C.
`CC(C)(C)[Si](C)(C)C(F)(F)F`: the melting point lay within 52 to 54 °C.
Then `O=S(=O)(N=Cc1cccnc1)c1ccccc1`, with 123 °C; and `Cc1nc(-c2ccccc2)cc(-c2cccc([N+](=O)[O-])c2)c1C(=O)NCCN(C)C`, with 143 to 145 °C; and `COc1cc(OC)c(CNCCc2ccc(O)cc2)cc1O`, with 170 to 173 °C.
For the molecule `COc1nc(C(Cl)(Cl)Cl)c(Cl)c(OC)c1Cl`, the melting point fell in the range of 67 to 69 °C.
For the molecule `CN1CCC(=C2c3ccsc3C(O)Cn3ccnc32)CC1` (stereo not given), the melting point was 230 °C.
Under `O=C1NC(=O)C2(c3ccc4ccc(Cl)nc4n3)C=CC=CC12` (stereo not given) stands 268 °C.
Take `CC1=NN(C)c2nc(C)c(CCN3CCN(c4n[nH]c5ccccc45)CC3)c(=O)n2C1`: the melting point came out at 199 °C.
Under `C[Si](C)(C)c1c(C#N)c(C(F)(F)F)nn1-c1c(Cl)cc(C(F)(F)F)cc1Cl` stands 108 to 110 °C; under `O=C(O)c1cn(-c2ccc(F)cc2F)c2c(F)c(N3Cc4ccc(Br)cc4C3)c(F)cc2c1=O`, 251 to 257 °C; under `COC(=O)C(CCSC)NC(=O)c1ccc(NC(=O)Cc2cn(S(=O)(=O)c3ccc(C)cc3)cn2)cc1-c1ccccc1` (stereo not given), 202 to 203 °C.
Under `CCCS(=O)(=O)NCC1Cc2ccc(C3=NNC(=O)CC3)cc2C1` (stereo not given) stands 158 to 159 °C; under `C[C@@H](Nc1ccc([N+](=O)[O-])cc1)C(=O)O`, 238 to 244 °C; under `O=C(Nc1ccc(CCO)c(CO)c1)OCc1ccccc1`, 101 to 103 °C.
Under `CCCc1nc2c(N)nc(C)c(C)c2n1CCCCS(C)(=O)=O` stands 152 to 153 °C.
The molecule `O=C(CC(C[N+](=O)[O-])c1ccccc1)c1ccc(O)cc1` (stereo not given) showed a melting point of 112 to 113 °C.
Under `C/C(=N\OCCCOc1ccc(C(=O)O)c(NC(=O)c2ccc(C(F)(F)F)cc2)c1)c1ccccc1` stands 174 to 176 °C; under `NC(=S)CCc1ccc([N+](=O)[O-])cc1`, 157 to 158 °C.
Under `NNC(=O)c1sc2cnccc2c1Oc1ccc(C(F)(F)F)cc1` stands 146 to 147 °C; under `Fc1ccc2c(c1)Cc1sc(NCCCN3CCOCC3)nc1-2`, 113 to 115 °C.
Consider `C=Cn1cc(C(=O)O)c(=O)c2cc(F)c(N3CCNCC3)cc21`, for which the melting point fell in the range of 248 to 251 °C.
`CC12CCC(C(=O)O)=CC1=CCC1C2CCC2(C)C(C(=O)c3ccc(O)cc3)CCC12` (stereo not given): the melting point stood at 295 °C.
Turning to `COc1c(C)cc(-c2cc(-c3cccnc3)c(N3CCOCC3)s2)nc1C`, the melting point fell in the range of 139 to 140 °C.
Take `Nc1ncc(Sc2ccc(O)cc2)s1`: the melting point lay in the range of 187 to 188 °C.
Molecule `CC(=O)C1CCC2C3CCC4CC(O)C(N5CCOC(C)(C)C5)CC4(C)C3CCC12C` (stereo not given) had a melting point of 174 to 176 °C.
Under `CCN(C(=O)N1CCN(c2cc(C)cc(C)c2)CC1)c1nc2ccccc2nc1OC` stands 145 to 147 °C; under `Cc1ccc2cccc(OCc3c(Cl)ccc(S(=O)(=O)N(C)CCCCCC(=O)O)c3Cl)c2n1`, 98 to 102 °C; under `Cc1sc(-c2ccccc2)nc1COc1ccc(COc2ncccc2C#N)cc1`, 120 to 121 °C.
Under `O=C(O)c1ccccc1Sc1cccc2c1C(=O)NC2=O` stands 289 to 290 °C; under `COc1ccc2ccc3c(c2c1)C(CC#N)CCO3` (stereo not given), 122 to 123 °C; under `CNC(=O)CC(C)(C)c1ccc(C(=O)Nc2cn3cc(Cl)ccc3n2)cc1`, 228 to 230 °C.
Consider `C#Cc1cc2cn[nH]c2c(C(=O)NC2(C3CC3)CC2)c1NC(=O)c1cc(C(F)(F)F)nn1-c1ncccc1Cl`, for which the melting point was in the range of 246 to 248 °C.
The molecule `Cn1ncnc1COc1nc2c(cc1-c1ccccc1)nnn2-c1ccccc1F` came in with a melting point of 144 to 146 °C.
`CCC(=O)NCCC1=CCC2=C1C1=C(CC2)OCCC1` displayed a melting point of 85 to 88 °C.
`O=C(Nc1ccnn1-c1c(Cl)cc(C(F)(F)F)c(Cl)c1Cl)C(F)(F)F` returned a melting point of 140 to 145 °C.
Under `N#Cc1cc([N+](=O)[O-])cc(O)c1O` stands 186 to 188 °C; under `CC1(C)CCC(C)(C)c2cc(C(=O)COc3ccc(C(=O)O)cc3)ccc21`, 168 to 170 °C.
`CC12CCC3C(CCC4CC(=O)CCC43C)C1CCC2C#N` (stereo not given): the melting point is 150 to 152 °C.
Under `Cc1c(-c2ncc([N+](=O)[O-])n2C)cnn1-c1ccc(Cl)cc1` stands 164 °C; under `CC(C)(C)OC(=O)/C(=C/c1ccccc1)C(=O)c1ccccc1O`, 109 to 110 °C; under `Cc1sc2nc(N(CCO)CCO)nc(NCc3ccccn3)c2c1Br`, 152 °C.
Under `Oc1ccc2c(c1)COc1c-2cc2ccc(O)cc2c1-c1ccccc1Cl` stands 220 to 222 °C.
Regarding `Cc1cc2c(cc1C#N)OCC(C)(C)C=C2c1ccccn1`, the melting point amounted to 136 °C.
Under `O=C1c2ccccc2C2(O)Oc3c(ccc(Cl)c3Cl)C12O` (stereo not given) stands 142 to 150 °C.
Under `Cc1cc(I)ccc1NC(=S)N(C)N` stands 160 to 161 °C; under `CCOC(=O)C(=NO)C(=O)OCC`, 86.5 to 88 °C.
Under `CON=C(C)C(C)=NOc1ncccc1N(OC)C(=O)OC` stands 86 to 88 °C.
Turning to `Cc1c(C#N)n(-c2ccc(Cl)cc2)c(=O)n1C`, the melting point was in the range of 138 to 140 °C.
Under `Cc1cc(OCc2ccccc2)cc(C)c1NC(=O)CCl` stands 165 °C; under `O=Cc1cc(O)c(O)c(C(F)(F)F)c1`, 188 to 192 °C.
